Experiments:
iPSC-CM = assay: AFM measurement of beat force and beat rate of solitary iPSC-derived cardiomyocytes; type: cell-based, human
Excerpt: (§1) In step 1441, the nanoscale tip of the microscale cantilever of the AFM is controlled to apply gentle pressure to a location on the cardiomyocyte. […] In experimental embodiments described in more detail below, one or more cardiomyocytes were gently contacted by the cantilever tip with 100 pN of force, producing a typical cellular indentation of about 200 nm to about 500 nm. In various embodiments the contact force falls in a range from about 0.05 to about 1 nN. Thus, in some embodiments, a method includes operating a controller for the microscale cantilever to cause the nanoscale tip to contact the cardiomyocyte at a predetermined pressure.
(§2) In step 1443, the indentation is measured and the vertical deflection feedback is turned off to allow the cantilever to move with the contractions of the beating cardiomyocyte. […]
(§3) In step 1445, the time history of vertical deflection of the cantilever at the location on the cell is measured and recorded. FIG. 15 is a graph 1500 that illustrates an example measured force time series when the AFM cantilever interacts with the living cardiomyocyte, according to an embodiment. […]
(§4) In step 1447, beat characteristics of the cell are determined. For example, the beat force, duration (width) and rate (frequency) are determined based on the time history of vertical deflection in trace 1510. […]

hESC-CM = assay: AFM measurement of beat force and beat rate of solitary hESC-derived cardiomyocytes; type: cell-based, human
Excerpt: as §1, §2, §3, §4

NC[C@H](O)c1ccc(O)c(O)c1 [norepinephrine, 4-[(1R)-2-amino-1-hydroxyethyl]benzene-1,2-diol] was tested, and the “beats faster than a cutoff of 1.7 beats/s” value (iPSC-CM; iPSC-CM after applying NE 100 μmol/L, 6% prior to treatment) was 21%, the “contraction force (beat force) after treatment” value (iPSC-CM; solitary iPSC-CM, norepinephrine 100 μmol/L, immediately following treatment, before treatment 0.18±0.06 nN, p<0.001) was 0.48±0.23 nN and the “effect on the beat rate” value (hESC-CM; hESC-CM after treatment with norepinephrine 100 μmol/L) was “minimal effect”. For the same molecule, the “contraction force (beat force) after treatment” value (hESC-CM; solitary hESC-CM, norepinephrine 100 μmol/L, immediately following treatment, before treatment 0.097±0.019 nN, p<0.001) was 0.31±0.03 nN.
